# In patent publication US20100197564A1, “DIARYL MORPHOLINES AS CB1 MODULATORS” (Schering Corporation, priority 2007, published 2010):
# pKi: −log10 of the molar value.
# Target: T1, cannabinoid CB1 (Homo sapiens, UniProt P21554)
# T1 construct: purchased
# Test: Competition binding assay for cannabinoid CB1 affinity (3H-CP55,940 displacement)
# Settings: membranes from cells expressing the receptor, 0.5 nM 3H-CP55,940; Ki by Cheng-Prusoff; read-out: Ki values as measured in the above assay
# Protocol: Non-specific binding was defined in the presence of 10 μM CP55,940. For saturation studies, concentrations of ^3H—CP55,940 ranging from 0.1-5 nM were incubated with membranes in the presence and absence of 10 μM CP55,940. Assays were terminated after incubation for 1½ hours by rapid filtration onto 0.3% polyethylenamine treated GF/C filterplates using a BRANDEL cell harvester. The plates were dried and MICROSCINT scintillation cocktail was added, after which the bound radioactivity was quantified using a TOPCOUNT scintillation counter.
# The dissociation constant (Kd) of ^3H—CP55,940 at the CB1 and CB2 receptor were determined by plotting specific binding at each concentration of radioligand, and analysis by non-linear regression. For competition studies, the concentration of each drug that inhibited 50 percent of ^3H—CP55,940 binding (IC50) was determined by non-linear regression analysis of the radioligand displacement curves. Affinity constants (K) were calculated using the equation derived by Cheng and Prusoff (1973), defined as: IC50/1+[conc. ligand/Kd].
# T1 sequence (P21554 whole entry): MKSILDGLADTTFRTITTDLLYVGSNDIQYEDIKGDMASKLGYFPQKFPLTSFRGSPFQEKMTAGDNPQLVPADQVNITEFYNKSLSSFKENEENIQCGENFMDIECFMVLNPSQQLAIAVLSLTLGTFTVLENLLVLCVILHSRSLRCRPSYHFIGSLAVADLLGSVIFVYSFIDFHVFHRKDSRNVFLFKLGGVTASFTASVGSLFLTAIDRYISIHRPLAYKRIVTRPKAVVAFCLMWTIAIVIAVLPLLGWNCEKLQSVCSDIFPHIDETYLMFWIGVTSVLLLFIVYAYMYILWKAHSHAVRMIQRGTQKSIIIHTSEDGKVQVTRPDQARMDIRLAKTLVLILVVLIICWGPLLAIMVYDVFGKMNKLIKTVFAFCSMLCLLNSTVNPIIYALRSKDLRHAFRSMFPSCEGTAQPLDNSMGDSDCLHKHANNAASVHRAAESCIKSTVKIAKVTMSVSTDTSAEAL
row,pKi,Compound
1,≥ 7.00,Fc1ccc(CC2CN(c3ccc(Cl)cc3)C(c3ccc(Cl)cc3Cl)CO2)cc1F (stereo not shown) [Example 1]
2,≥ 6.10,CC(C)(C)OC(=O)CC1OCC(c2ccc(Cl)cc2Cl)N(c2ccc(Cl)cc2)C1=O (stereo not shown) [Example 2]
3,≥ 6.10,NCCC1CN(c2ccc(Cl)cc2)C(c2ccc(Cl)cc2Cl)CO1 (stereo not shown) [Example 5]
4,≥ 7.60,O=S(=O)(NCCC1CN(c2ccc(Cl)cc2)C(c2ccc(Cl)cc2Cl)CO1)c1cccnc1 (stereo not shown) [Example 6]
